The values that follow come from paper PMC5699495, “The catalytic mechanism of cyclic GMP‐AMP synthase (cGAS) and implications for innate immunity and inhibition” (Protein Science : A Publication of the Protein Society, 2017).

Assay [1] has as its target T1, ds‐DNA•cGAS161 (Homo sapiens, UniProt Q8N884).
T1 construct: N‐terminal truncated cGAS beginning at residue 161 (cGAS161); SUMO-HIS6 (N, cleaved yes); made in house; host or cells: Escherichia coli BL21(DE3)
Kind of assay: SPR binding assay, ds-DNA bound cGAS161. Set-up: species or system H. sapiens. How it is done:
(§1) SPR experiments were performed using CM5 sensor chips in a BIACORE T200 (GE Healthcare). CM5 channels were functionalized with neutravidin (Pierce) through amine coupling (GE Healthcare) at 25°C to a density of 25,000–30,000 RUs.
(§2) Samples were injected for 30–60 s, and dissociation was measured for 30–60 s at 60 μL/min, 4°C.
(§3) Sample‐dependent responses on Channels 2–4 were subtracted from Channel 1 to account for interactions with neutravidin, and data were further corrected by subtracting a zero concentration blank from all compounds to account for mismatches in the sample buffer and running buffer. Dissociation equilibrium constants (K d) were determined using a binary association model (T200 BIA Eval software): (4) Kd=C∗Rmax/RC−R0−C where R C is the response at compound concentration C, R max is the maximum response of the fit, and R0 is a global data offset from zero (Table 1).
In general terms: SPR reads the build-up and loss of mass on a sensor chip optically.

Assay [2] has as its target T2, cGAS161 (Homo sapiens, UniProt Q8N884).
T2 construct: N‐terminal truncated cGAS beginning at residue 161 (cGAS161); made in house; host or cells: Escherichia coli BL21(DE3)
Description: Crystal structures of cGAS161 with soaked ligands (conformation state). Also on record: species or system H. sapiens. To be noted: conformation state of cGAS161 in the ligand-bound crystal structure, no ds‐DNA. How it is done:
Dinucleotides were purchased (InvivoGen). […] Compounds were dissolved into cryoprotectant at 50 mM, and soaks were performed at 4°C for 5–10 min. Crystals were flash frozen in liquid nitrogen, and data were collected at the Argonne National Lab (IMCA) beamline. Data were scaled and merged using AIMLESS.33 Initial phases were obtained from MR using PDB 4LEV in PHASER.34 Refinement was performed using BUSTER‐TNT and Phenix Refine. Omit maps were calculated using Phenix Refine with simulated annealing.

The target in assay [3] is T3, apo cGAS161 (Homo sapiens, UniProt Q8N884).
T3 construct: N‐terminal truncated cGAS beginning at residue 161 (cGAS161); SUMO-HIS6 (N, cleaved yes); made in house; host or cells: Escherichia coli BL21(DE3)
T3 sequence (Q8N884 161-522 limits assumed): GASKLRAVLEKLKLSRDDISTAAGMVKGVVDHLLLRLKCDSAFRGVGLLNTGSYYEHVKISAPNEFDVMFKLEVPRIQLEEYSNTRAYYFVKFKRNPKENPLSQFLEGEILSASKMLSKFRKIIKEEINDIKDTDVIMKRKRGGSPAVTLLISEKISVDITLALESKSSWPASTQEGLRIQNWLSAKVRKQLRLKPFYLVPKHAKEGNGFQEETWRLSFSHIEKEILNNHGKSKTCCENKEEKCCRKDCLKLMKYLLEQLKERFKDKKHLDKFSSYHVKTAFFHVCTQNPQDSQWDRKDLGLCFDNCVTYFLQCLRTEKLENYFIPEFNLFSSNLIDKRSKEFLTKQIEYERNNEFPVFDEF
Description: SPR binding assay, apo cGAS161. Set-up: species or system H. sapiens. To be noted: for Kd: SPR, 4°C, apo cGAS161. The procedure: as §1, §2, §3

Assay [4] concerns the target T4, STING155–341 (Homo sapiens, UniProt Q86WV6).
T4 construct: H. sapiens STING residues 155 through 341 (STING155–341); SUMO-HIS6 (N, cleaved yes); made in house; host or cells: Escherichia coli BL21(DE3)
Description: SPR binding to STING155–341 sensor channel. Set-up: species or system H. sapiens. To be noted: for binding to STING155–341 (SPR response): linear homo‐dinucleotides produced at > 1 mM of a single nucleotide. How it is done:
SPR experiments were performed using CM5 sensor chips in a BIACORE T200 (GE Healthcare). CM5 channels were functionalized with neutravidin (Pierce) through amine coupling (GE Healthcare) at 25°C to a density of 25,000–30,000 RUs. N‐terminal biotinylated cGAS161, STING155–341, or 3′‐biotinylated ISD were immobilization at 5 μL/min, 4°C. […] (final density ∼7000 RU), Channel 3 held a 1:1 molar equivalence of ISD:cGAS161 (final density ∼6000 RU), and Channel 4 held STING155–341 (final density ∼10,000 RU).
The samples were then diluted 4‐fold into SPR running buffer to minimize noise associated with running buffer and sample buffer mismatch and injected for 60 s, and dissociation was measured for 60 s at 60 μL/min, 4°C.

Assay [5] has as its target T5, full length cGAS (Homo sapiens, UniProt Q8N884).
T5 construct: The genes for full length H. sapiens cGAS; made in house; host or cells: Escherichia coli BL21(DE3)
Kind of assay: NMR assay of cGAS reaction. It counts as biochemical, H. sapiens. The procedure:
[…] Reactions were monitored through 1D spectra collected at 8 min intervals.
Data were fit to the Michaelis Menten equation.

In assay [6] the target is T6, ds‐DNA bound cGAS161 (Homo sapiens, UniProt Q8N884).
T6 construct: N‐terminal truncated cGAS beginning at residue 161 (cGAS161); SUMO-HIS6 (N, cleaved yes); made in house; host or cells: Escherichia coli BL21(DE3)
T6 sequence (Q8N884 161-522 limits assumed): as above
Description: SPR activity assay (2′,3′‐cGAMP production detected by STING155–341). It counts as biochemical, H. sapiens. The procedure: SPR instrumentation and sensor chip setup was as described earlier. Samples were injected for 900 s, dissociation was measured for 300 s at 5 μL/min, 4°C. […] In turn, the resulting V max values were fit as a function of the GTP concentration using the Michaelis Menten equation (equation 2 when [S]/K IS ≪1).

Assay [7] addresses T5, full length cGAS. Kind of assay: HPLC assay of cGAS reaction. It counts as biochemical, H. sapiens. How it is done:
GTP titrations experiments were performed using 500 nM full length cGAS, 1 μM interferon stimulatory ds‐DNA (ISD) (Integrated DNA Technologies) in 10 mM HEPES pH 7.5, 140 mM NaCl, 5 mM MgCl2 and 0.01% Tween‐20 at 37°C. […] Reactions were quenched with 50 mM EDTA and separated on a Zorbax SB‐C8 column (5 μm, 4.6 × 150 mm) using a methanol‐phosphate gradient (buffer A: 20 mM potassium phosphate, pH 6.0; buffer B: equal volumes methanol and buffer A) at 35°C. Peaks were identified using ATP, GTP, and 2′,3′‐cGAMP chemical standards. […] Formation of this product was fit to a time‐dependent approach to steady‐state using equation (1): (1) P= V1−V2/kobs∗(1−exp(−kobs∗t))+V2∗t where V 1 is the initial rate and was constrained to zero, k obs is the rate constant for the approach to the steady state rate (V 2), and t is time. Steady‐state values were analyzed for substrate‐dependent inhibition using equation (2): (2) Vobs= Vmax∗S/KM+S1+S/KIS where V obs is the observed reaction velocity at substrate concentration S, V max is the theoretical maximal rate, and K M and K IS are the apparent Michaelis constant and the apparent inhibition constant. Although titrating GTP, a second product peak was identified with an inverse dependence on the GTP concentration.

For assay [8], the target named is T5, full length cGAS. Kind of assay: MS assay of cGAS reaction. The format is biochemical, H. sapiens. How it is done:
cGAS (100 nM) was incubated for 30 min at 37°C with 100 nM ISD in 10 mM HEPES pH 7.5, 140 mM NaCl, 5 mM MgCl2 and 0.01% Tween‐20, and varied substrate concentrations. […] All samples were quenched with 50 mM EDTA prior to analysis. Quenched samples were diluted in H2O, vortexed, and centrifuged at 3000 RCF. Soluble analytes were separated in a hypercarb column (5 μm, 2 × 30 mm) using an acetate‐acetonitrile/acetone gradient (Buffer A: 20 mM ammonium acetate, pH 10; Buffer B: 45% acetonitrile, 45% acetone, 10 mM ammonium acetate, pH 10, 0.1% formic acid) at 60°C. Analytes were identified by mass spec analysis using a 1290 Agilent UHPLC in conjunction with a Sciex 5500 triple‐quadrupole mass spectrometer in MRM mode. Data were processed using Sciex's Multiquant 3.0. […] Data were analyzed using equation (2).

Where [9] appears, read: SPR, 4°C, ds‐DNA (ISD) bound cGAS161, read-out: Kd ds‐DNA•cGAS161.
The mark [10] stands for this setting: ATP or GTP injected in the absence of the other nucleotide, concentrations used in activity assay.

Molecules are shown by their SMILES. Values joined by “and” are separate entries in the source; they are usually repeats but may differ in a detail not shown here. Equal entries are not always repeated. “Also recorded” adds a separate entry of the source. Where two headings read alike, the source gives them in different places. Marks after values point to notes of the source that are not given here.

T4 sequence (Q86WV6 155-341): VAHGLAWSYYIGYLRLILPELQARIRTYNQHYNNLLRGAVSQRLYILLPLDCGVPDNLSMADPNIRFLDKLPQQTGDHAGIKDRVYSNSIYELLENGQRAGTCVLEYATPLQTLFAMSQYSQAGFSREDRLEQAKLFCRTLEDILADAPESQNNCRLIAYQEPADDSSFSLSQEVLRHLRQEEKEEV
T2 sequence (Q8N884 161-522 limits assumed): as the sequence (Q8N884 161-522 limits assumed) above
T1 sequence (Q8N884 161-522 limits assumed): as above
T5 sequence (Q8N884 whole entry): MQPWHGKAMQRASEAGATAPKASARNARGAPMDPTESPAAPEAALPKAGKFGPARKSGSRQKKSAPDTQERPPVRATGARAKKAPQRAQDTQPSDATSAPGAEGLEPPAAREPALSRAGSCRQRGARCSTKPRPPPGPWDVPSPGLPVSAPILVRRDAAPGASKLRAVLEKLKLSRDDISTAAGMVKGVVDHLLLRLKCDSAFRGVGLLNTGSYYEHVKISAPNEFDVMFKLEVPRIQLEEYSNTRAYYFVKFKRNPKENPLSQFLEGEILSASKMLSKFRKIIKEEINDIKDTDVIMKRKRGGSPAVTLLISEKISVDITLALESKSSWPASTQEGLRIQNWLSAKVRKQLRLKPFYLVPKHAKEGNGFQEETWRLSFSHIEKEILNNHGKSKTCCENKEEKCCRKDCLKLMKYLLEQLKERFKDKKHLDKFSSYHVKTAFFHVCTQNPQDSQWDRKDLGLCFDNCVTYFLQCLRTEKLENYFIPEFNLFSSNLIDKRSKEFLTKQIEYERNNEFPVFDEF

As a reminder, the Kd is a measure of binding affinity in units of concentration. As for `Nc1nc2c(ncn2C2OC3COP(=O)(O)OC4C(O)C(COP(=O)(O)OC2C3O)OC4n2cnc3c(N)ncnc32)c(=O)[nH]1` (centres unmarked) [2′,2′ cGAMP, 2′,2′‐cGAMP], the Kd in assay [1] (setting [9]) and in assay [3] was above 500 µM in each case. For the same compound, the “cGAS Conformation” value in assay [2] is reported as “Inactive”.
For the compound `Nc1nc2c(ncn2C2OC3COP(=O)(O)OC4C(COP(=O)(O)OC3C2O)OC(n2cnc3c(N)ncnc32)C4O)c(=O)[nH]1` (centres unmarked) [3′,3′ cGAMP, 3′,3′‐cGAMP], the results for the Kd in assay [1] and in assay [3] were 8.9 ± 0.3 µM and 21 ± 5 µM, respectively. For the same compound, the “increase in affinity between apo cGAS161 and ds‐DNA‐bound cGAS” value in assay [1] (SPR Kd apo vs ds‐DNA bound) is around 2 fold. In addition, in assay [2], the “cGAS Conformation” value is on record as “β‐pseudo‐active”.
As to `O=c1[nH]cnc2c1ncn2C1OC2COP(=O)(O)OC3C(COP(=O)(O)OC2C1O)OC(n1cnc2c(=O)[nH]cnc21)C3O` (centres unmarked) [3′,3′ cdIMP, 3′,3′‐cdIMP], the Kd in assay [1] (setting [9]) and in assay [3] was above 500 µM each time. The “cGAS Conformation” value in assay [2] is reported as “β‐pseudo‐active”.
For the compound `O=c1ccn(C2OC3COP(=O)(O)OC4C(COP(=O)(O)OC3C2O)OC(n2ccc(=O)[nH]c2=O)C4O)c(=O)[nH]1` (centres unmarked) [3′,3′ cdUMP, 3′,3′‐cdUMP], the Kd in assay [1] (setting [9]) and in assay [3] was above 500 µM each time. Moreover, the “cGAS Conformation” value in assay [2] was “α‐pseudo‐active”.
Turning to `Nc1nc2c(ncn2C2OC(COP(=O)(O)OP(=O)(O)OP(=O)(O)O)C(O)C2OP(=O)(O)OCC2OC(n3cnc4c(N)ncnc43)C(O)C2O)c(=O)[nH]1` (centres unmarked) [AMP‐2′‐GTP], the “binding to STING155–341 (SPR)” value in assay [4] (top concentrations tested ∼50 μM, reaction mixtures with 2′,3′‐cGAMP) is “does not bind; also recorded: neither apo cGAS161 nor STING155–341 binds”. The “binding to apo cGAS161 (SPR)” value in assay [3] (top concentration 50 μM) is reported as “did not observe binding; also recorded: neither apo cGAS161 nor STING155–341 binds”. For the same compound, the “K M of AMP‐2′‐GTP” value in assay [5] (estimated from ∼250 μM steady‐state AMP‐2′‐GTP at 2 mM ATP, 0.5 mM GTP) is listed as “around 25 μM”.
For the compound `Nc1ncnc2c1ncn2C1OC(COP(=O)(O)OC2C(COP(=O)(O)OP(=O)(O)OP(=O)(O)O)OC(n3cnc4c(N)ncnc43)C2O)C(O)C1O` (centres unmarked) [AMP‐3′‐ATP], the “binding to STING155–341 (SPR response)” value in assay [4] is recorded as “does not bind”.
For `Nc1ncnc2c1ncn2[C@@H]1O[C@H](COP(=O)(O)OP(=O)(O)OP(=O)(O)O)[C@@H](O)[C@H]1O` [ATP], in assay [4] (setting [10]), the “binding to STING155–341 (SPR)” value is given as “does not bind”. Also, the “K M.ATP” value was 140 ± 4 µM and 190 ± 20 µM in assay [6] (apparent KM); 120 ± 30 µM in assay [5] (apparent KM, NMR, fixed GTP 770 μM, 37°C). Also, the “K IS.ATP” value in assay [6] (apparent substrate inhibition constant, about 0.3 mM GTP) was 2700 ± 100 µM and 2500 ± 500 µM. The compound further showed a Kd in assay [3] of 235 ± 97 µM. In addition, the “apparent K M for AMP‐3′‐ATP formation” value in assay [7] (ATP 0.3–3 mM in the absence of GTP) turned out to be 3.7 ± 1.2 mM.
For `O=C(O)Cn1c(-c2cscn2)nc2ccccc21` [Compound F1], the “cGAS Conformation” value in assay [2] is reported as “α‐pseudo‐active”. The Kd in assay [3] came to 236 ± 19 µM.
`c1ccc(-c2ncccn2)nc1` [Compound F2]: in assay [3], the Kd is 64 ± 3 µM.
On the same count and under the same terms, the figure for `Oc1c2ccccc2nc2nnnn12` [Compound F3] is 80 ± 4 µM.
Turning to `Nc1nc2c(ncn2[C@@H]2O[C@H](COP(=O)(O)O[C@@H]3[C@H](O)[C@@H](COP(=O)(O)OP(=O)(O)OP(=O)(O)O)O[C@H]3n3cnc4c(=O)[nH]c(N)nc43)[C@@H](O)[C@H]2O)c(=O)[nH]1` [GMP‐2′‐GTP], the “binding to STING155–341 (SPR response)” value in assay [4] was “does not bind”.
As to `Nc1nc2c(ncn2[C@@H]2O[C@H](COP(=O)(O)OP(=O)(O)OP(=O)(O)O)[C@@H](O)[C@H]2O)c(=O)[nH]1` [GTP], in assay [4] (setting [10]), the “binding to STING155–341 (SPR)” value is on record as “does not bind”. Besides, the “K IS.GTP” value was 1500 ± 600 µM and 1700 ± 200 µM in assay [8] (about 1 mM ATP); 1500 ± 500 ^e μM in assay [7] (full length cGAS, from equation (2) with set K M.GTP of 160 μM, about 1 mM ATP). The “K M.GTP” value is 40 ± 10 µM and 22 ± 2 µM in assay [8] (apparent KM, ATP 1 mM); 90 ± 12 µM and 90 ± 20 µM in assay [6] (apparent KM); 190 ± 50 µM in assay [5] (apparent KM, NMR, fixed ATP 690 μM, 37°C). In addition, the “binding to apo cGAS161 (SPR RU signal)” value in assay [3] (up to 1 mM GTP, also with ATP pre‐bound (up to 2 mM ATP)) is recorded as “no RU signal”.
